Like-named read-outs stand apart in the source and are kept apart here.
Target: T1, human P2X3 receptor (Homo sapiens, UniProt P56373)
T1 construct: expressed in transfected cells; host or cells: CHO-K1
T1 sequence (P56373 1-397): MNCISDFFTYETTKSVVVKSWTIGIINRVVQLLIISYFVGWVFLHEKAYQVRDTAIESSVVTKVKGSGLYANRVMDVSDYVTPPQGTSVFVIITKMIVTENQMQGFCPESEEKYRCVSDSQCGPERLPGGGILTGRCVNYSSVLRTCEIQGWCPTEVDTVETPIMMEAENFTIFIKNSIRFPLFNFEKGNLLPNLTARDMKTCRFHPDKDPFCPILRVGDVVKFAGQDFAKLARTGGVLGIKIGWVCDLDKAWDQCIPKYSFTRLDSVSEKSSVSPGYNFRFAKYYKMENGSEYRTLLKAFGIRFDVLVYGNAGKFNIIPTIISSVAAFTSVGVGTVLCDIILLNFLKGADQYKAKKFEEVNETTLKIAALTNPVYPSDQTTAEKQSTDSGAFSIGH
Test: Calcium luminescence (photoprotein) assay in CHO-K1 cells co-expressing human P2X3 receptor, α,β-Met-ATP stimulation, FLEXSTATION readout
Assay type: cell-based
How it was run: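 CHO-K1 cells co-expressing human P2X3 and a Ca2+-sensitive photoprotein, loaded with coelenterazine in Tyrode's buffer (pH 7.4) for 4 h at 37 °C. Compounds injected 4 min before α,β-Met-ATP stimulation; luminescence recorded, IC50 and pseudo-Hill slope from nonlinear regression of inhibition curves.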

[1] = Table 9, human P2X3 receptor antagonist activity, CHO-K1 cells, α,β-Met-ATP, read-out: h-P2X3 IC50
[2] = Table 6, human P2X3 receptor antagonist activity, CHO-K1 cells, α,β-Met-ATP, read-out: h-P2X3 IC50
[3] = Table 7, human P2X3 receptor antagonist activity, CHO-K1 cells, α,β-Met-ATP, read-out: h-P2X3 IC50
[4] = Table 8, human P2X3 receptor antagonist activity, CHO-K1 cells, α,β-Met-ATP, read-out: h-P2X3 IC50

SMILES | IC50 [2] | also measured
CCC1CCN=C2c3ncc(N4CCOCC4)cc3N(Cc3cc(OC)cc(OC)c3)C(=O)N21 (stereo not drawn) [Example 151, 5-(3,5-dimethoxybenzyl)-8-ethyl-3-(morpholin-4-yl)-5,8,9,10-tetrahydro-6H-pyrido[2,3-e]pyrimido[1,2-c]pyrimidin-6-one] | – | IC50 [1]: 0.938 µM
CCC1CN=C2c3ncc(N4CCOCC4)cc3N(Cc3cc(OC)cc(OC)c3)C(=O)N21 (stereo not drawn) [Example 6, 6-(3,5-dimethoxybenzyl)-3-ethyl-8-(morpholin-4-yl)-2,6-dihydroimidazo[1,2-c]pyrido[2,3-e]pyrimidin-5(3H)-one] | 0.504 µM | –
COc1ccc(Cn2c(=O)n3c(C(C)(C)C)nnc3c3ncc(N4CCOCC4)cc32)cc1 [Example 96, 3-tert-butyl-6-(4-methoxybenzyl)-8-(morpholin-4-yl)pyrido[2,3-e][1,2,4]triazolo[4,3-c]pyrimidin-5(6H)-one] | – | IC50 (running text b1263, read-out: inhibition (human P2X3 receptor)): 0.0207 µM
COc1cc(CN2C(=O)N3CC(C)CN=C3c3ncc(N4CCOCC4)cc32)cc(OC)c1 (stereo not drawn) [Example 145, 5-(3,5-dimethoxybenzyl)-9-methyl-3-(morpholin-4-yl)-5,8,9,10-tetrahydro-6H-pyrido[2,3-e]pyrimido[1,2-c]pyrimidin-6-one] | – | IC50 [1]: 1.78 µM
O=C1N2CC(C3CC3)N=C2c2ncc(N3CCOCC3)cc2N1Cc1ccc(Cl)cc1 (stereo not drawn) [Example 10, 6-(4-chlorobenzyl)-2-cyclopropyl-8-(morpholin-4-yl)-2,6-dihydroimidazo[1,2-c]pyrido[2,3-e]pyrimidin-5(3H)-one] | 0.241 µM | –
COc1cc(CN2C(=O)N3CC(C4CCCCC4)N=C3c3ncc(N4CCOCC4)cc32)cc(OC)c1 (stereo not drawn) [Example 43, 2-cyclohexyl-6-(3,5-dimethoxybenzyl)-8-(morpholin-4-yl)-2,6-dihydroimidazo[1,2-c]pyrido[2,3-e]pyrimidin-5(3H)-one] | 0.112 µM | –
O=c1n(Cc2ccc(Cl)cc2)c2cc(N3CCOCC3)cnc2c2nnc(Cc3cccnc3)n12 [Example 100, 6-(4-chlorobenzyl)-8-(morpholin-4-y1)-3-(pyridin-3-ylmethyl)pyrido[2,3-e][1,2,4]triazolo[4,3-c]pyrimidin-5(6H)-one] | – | IC50 [3]: 0.153 µM
CC(C)(C)c1nnc2c3ncc(N4CCC(N)CC4)cc3c(Cc3ccc(Cl)cc3)nn12 [Example 139, 1-[5-tert-butyl-8-(4-chlorobenzyl)-3,4,6,7,13-pentazatricyclo[7.4.0.02,6]trideca-1(9),2,4,7,10,12-hexaen-11-yl]piperidin-4-amine] | – | IC50 [4]: 0.379 µM
COc1cc(Cc2nn3c(COC(C)C)nnc3c3ncc(N4CCOCC4)cc23)cc(OC)c1 [Example 119, 6-(3,5-dimethoxybenzyl)-8-(morpholin-4-yl)-3-[(propan-2-yloxy)methyl]pyrido[2,3-d][1,2,4]triazolo[4,3-b]pyridazine] | – | IC50 [4]: 1.21 µM
COc1ccc(Cn2c(=O)n3nc(C(C)(C)C)nc3c3ncc(N4CCOCC4)cc32)cc1 [Example 157, 2-tert-butyl-6-(4-methoxybenzyl)-8-(morpholin-4-yl)pyrido[2,3-e][1,2,4]triazolo[1,5-c]pyrimidin-5(6H)-one] | – | IC50 [1]: 0.495 µM
COc1cc(CN2C(=O)N3C(=NCC3C)c3ncc(N4CCOCC4)cc32)cc(OC)c1 (stereo not drawn) [Example 2] | 1.19 µM | –
COCC1CN2C(=O)N(Cc3ccc(Cl)cc3)c3cc(N4CCOCC4)cnc3C2=N1 (stereo not drawn) [Example 11, 6-(4-chlorobenzyl)-2-(methoxymethyl)-8-(morpholin-4-y1)-2,6-dihydroimidazo[1,2-c]pyrido[2,3-e]pyrimidin-5(3H)-one] | 0.358 µM | –
COc1cc(Cn2c(=O)n3c(C)c(C)nc3c3ncc(N4CCC(OC)CC4)cc32)cc(OC)c1 [Example 85, 6-(3,5-dimethoxybenzyl)-8-(4-methoxypiperidin-1-yl)-2,3-dimethylimidazo[1,2-c]pyrido[2,3-e]pyrimidin-5(6H)-one] | – | IC50 [3]: 1.3 µM
CC(C)CCC1CN=C2c3ncc(N4CCOCC4)cc3N(Cc3ccc(Cl)cc3)C(=O)N21 (stereo not drawn) [Example 63, 6-(4-chlorobenzyl)-3-(3-methylbutyl)-8-(morpholin-4-yl)-2,6-dihydroimidazo[1,2-c]pyrido[2,3-e]pyrimidin-5(3H)-one] | 0.299 µM | –
CC(C)NC(=O)Cc1nnc2c3ncc(N4CCOCC4)cc3n(Cc3ccc(Cl)cc3)c(=O)n12 [Example 103, 2-[6-(4-chlorobenzyl)-8-(morpholin-4-y1)-5-oxo-5,6-dihydropyrido[2,3-e][1,2,4]triazolo[4,3-c]pyrimidin-3-yl]-n-(propan-2-yl)acetamide] | – | IC50 [3]: 0.811 µM
COc1ccc(Cc2nn3c(C(C)C)nnc3c3ncc(N4CCOCC4)cc23)cc1 [Example 122, 6-(4-methoxybenzyl)-8-(morpholin-4-yl)-3-(propan-2-yl)pyrido[2,3-d][1,2,4]triazolo[4,3-b]pyridazine] | – | IC50 [4]: 1.81 µM
O=C1N(Cc2ccc(Cl)cc2)c2cc(N3CCOCC3)cnc2C2=NCC(c3ccccc3)N12 (stereo not drawn) [Example 45, 6-(4-chlorobenzyl)-8-(morpholin-4-y1)-3-phenyl-2,6-dihydroimidazo[1,2-c]pyrido[2,3-e]pyrimidin-5(3H)-one] | 0.2 µM | –
COc1ccc(Cc2nn3c(C(C)(C)C)nnc3c3ncc(N4CCOCC4)cc23)cc1 [Example 123, 3-tert-butyl-6-(4-methoxybenzyl)-8-(morpholin-4-yl)pyrido[2,3-d][1,2,4]triazolo[4,3-b]pyridazine] | – | IC50 [4]: 0.246 µM
COc1cc(CN2C(=O)N3C(=NCC3CC(C)C)c3ncc(N4CCOCC4)cc32)cc(OC)c1 (stereo not drawn) [Example 35, 6-(3,5-dimethoxybenzyl)-3-(2-methylpropyl)-8-(morpholin-4-yl)-2,6-dihydroimidazo[1,2-c]pyrido[2,3-e]pyrimidin-5(3H)-one] | 0.793 µM | –
CCC1CN2C(=O)N(Cc3cc(OC)cc(OC)c3)c3cc(N4CCOCC4)cnc3C2=N1 (stereo not drawn) [Example 5, 6-(3,5-dimethoxybenzyl)-2-ethyl-8-(morpholin-4-yl)-2,6-dihydroimidazo[1,2-c]pyrido[2,3-e]pyrimidin-5(3H)-one] | 0.278 µM | –
COc1cc(CN2C(=O)N3CC(C)N=C3c3ncc(N4CCOCC4)cc32)cc(OC)c1 (stereo not drawn) [Example 3] | 1.16 µM | –

Further lines, with some results ahead:

IC50 [2] | SMILES | also measured
0.35 µM | CC(C)CC1CN2C(=O)N(Cc3ccc(Cl)cc3)c3cc(N4CCOCC4)cnc3C2=N1 (stereo not drawn) [Example 30, 6-(4-chlorobenzyl)-2-(2-methylpropyl)-8-(morpholin-4-y1)-2,6-dihydroimidazo[1,2-c]pyrido[2,3-e]pyrimidin-5(3H)-one] | –
0.124 µM | COc1ccc(CN2C(=O)N3CC(C(C)(C)C)N=C3c3ncc(N4CCOCC4)cc32)cc1 (stereo not drawn) [Example 32, 2-tert-butyl-6-(4-methoxybenzyl)-8-(morpholin-4-yl)-2,6-dihydroimidazo[1,2-c]pyrido[2,3-e]pyrimidin-5(3H)-one] | –
0.678 µM | COc1ccc(CN2C(=O)N3CC(CC(C)C)N=C3c3ncc(N4CCOCC4)cc32)cc1 (stereo not drawn) [Example 37, 6-(4-methoxybenzyl)-2-(2-methylpropyl)-8-(morpholin-4-yl)-2,6-dihydroimidazo[1,2-c]pyrido[2,3-e]pyrimidin-5(3H)-one] | –

— US11999732B2, “P2X3 receptor antagonists” (RECORDATI INDUSTRIA CHIMICA E FARMACEUTICA SPA, priority 2018, dated 2024)
